Experimental data taken from US12257246B2, “Composition of 2,4,6-trifluoro-n-[6-(1-methyl-piperidin-4-carbonyl)-pyridin-2-yl[-benzamide” (CoLucid Pharmaceuticals, Inc., priority 2009, dated 2025).

Key:
[1] = system: rabbit saphenous vein; settings: EC50 divided by %max KCl
[2] = system: rabbit saphenous vein; assay: cells; settings: Oryctolagus cuniculus, read-out: saphenous vein contraction EC50
[3] = system: migraine; settings: in vivo; cited from earlier work

CNS(=O)(=O)Cc1ccc2[nH]cc(CCN(C)C)c2c1 [sumatriptan]
corrected vasoconstriction EC50 [1]: 10.3 nM
EC50 [2]: 660 nM

CN1CCC(c2c[nH]c3ccc(NC(=O)c4ccc(F)cc4)cc23)CC1 [LY334370]
efficacy in acute treatment of migraine [3]: proved effective
